In patent publication US20160031889A1, “ANTIVIRAL INDOLO[2,3-B]QUINOXALINE” (VIRONOVA HERPES AB, priority 2013, published 2016):
Where a name gives a salt, the structure may show the parent alone.

Columns and labels:
[1] = system: herpes simplex 1 virus (HSV1); assay: Plaque Assay 1 (plaque counting); format: cell-based; settings: for plaques seen in plaque assay: concentration and dilution not stated
Protocol: The compounds prepared in Examples 1-4 were tested in a plaque assay using herpes simplex 1 virus (HSV1), and acyclovir (ACV) as a reference compound. […] The plaque counting results obtained when using the compounds of Examples 1 and 4, and the reference compound ACV, respectively, are shown in Tables 1-3.

HSV-1 = settings: in vitro; cited from earlier work

| Compound | plaque count ([1]; compound 1 uM, 10^1 dilution) | plaque count ([1]; compound 5 uM, 10^1 dilution) | plaque count ([1]; compound 5 uM, 10^2 dilution) | plaques seen in plaque assay [1] | other results |
| --- | --- | --- | --- | --- | --- |
| Br.C=CC[N+](C)(C)CCn1c2ccccc2c2nc3cc(C)c(C)cc3nc21 | – | – | – | – | melting point: 248 to 252 °C |
| Nc1nc2c(ncn2COCCO)c(=O)[nH]1 [ACV, acyclovir, reference compound] | 15 | 8 | 1 | – | plaque count ([1]; compound 25 uM, 10^1 dilution): 2; selectivity ratio for the inhibitory activity against HSV-1 (HSV-1): about 2000 |
| Cc1cc2nc3c4ccccc4n(CC[N+](C)(C)C)c3nc2cc1C.[I-] [Example 1, 2,3-Dimethyl-6-[2-(trimethylamino)ethyl]-6H-indolo[2,3-b]quinoxaline iodide] | 19 | 8 | 2 | – | plaque count ([1]; compound 1 uM, 10^2 dilution): 3; plaque count ([1]; compound 1 uM, 10^3 dilution): 1 |
| Cc1cc2nc3c4cc(Cl)ccc4n(CC(=O)NCCN(C)C)c3nc2cc1C [Example 2, 9-chloro-N-[2-(dimethylamino)ethyl]-2,3-dimethyl-6H-Indolo[2,3-b]quinoxaline-6-acetamide] | – | – | – | no plaques could be seen | – |
| Cc1cc2nc3c4cc(Cl)ccc4n(CC(=S)NCCN(C)C)c3nc2cc1C [Example 3, 9-chloro-N-[2-(dimethylamino)ethyl]-2,3-dimethyl-6H-Indolo[2,3-b]quinoxaline-6-thioacetamide] | – | – | – | no plaques could be seen | – |
| Cc1cc2nc3c4ccccc4n(CC[N+](C)(C)C)c3nc2cc1C [Example 4, 2,3-dimethyl-6-[2-(trimethylamino)ethyl]-6H-indolo[2,3-b]quinoxaline methyl sulfate] | 11 | 2 | – | – | – |
